Test results published in patent US11124510B2, “Alkyl chain modified imidazoquinoline TLR7/8 agonist compounds and uses thereof” (Dynavax Technologies Corporation, priority 2017, dated 2021).

Assays:
[1] = target: TLR7 (Homo sapiens (Human), UniProt Q9NYK1); test: TLR7 agonist bioactivity: induction of IFNα protein in pDC-enriched PBMC cultures (ELISA, 24 h); assay type: cell-based; conditions: for EC50: IFNα induction, pDC-enriched human PBMC, 24 hours; for fold loss of TLR7 agonist potency compared to Compound No. 63-00 (IMDQ): less potent than IMDQ; for TLR7 (% of Compound No. 63-00 EC50 Value): EC50 expressed as percentage of EC50 of Compound No. 63-00
Method: Plasmacytoid dendritic cell (pDC)—enriched peripheral blood mononuclear cells (PBMCs) were prepared from the blood of a series of human donors (3-5 donors/experiment). PBMCs were isolated using Ficoll-Paque Premium® (GE Healthcare, Chicago Ill.) using methods well known to those in the art. pDCs were magnetically isolated from the total recovered PBMC population using CD304 (BDCA-4/Neuropilin-1) microbeads (Miltenyi Biotec, San Diego Calif.), according to the manufacturer's instructions. Isolated pDCs were then added back to between 1 and 2×10^8 of the corresponding donor's PBMCs for relative enrichment of this cell type. […] Culture supernatants were collected and interferon-alpha (IFNα) protein levels were measured by ELISA (MabTech, Cincinnati Ohio), according to the manufacturer's instructions.

[2] = tested on: serum IL-6 and IL-12p40; test: In vivo systemic immune activation assay: serum IL-6 and IL-12p40 by ELISA after single subcutaneous injection; design: species or system mice; conditions: 5 μg subcutaneously in footpad, 95% sesame oil/5% ethanol, ± SEM
Method: Small molecule TLR7 and TLR7/8 agonists derived from the 1H-imidazo[4,5-c]quinoline privileged template (see e.g., Imiquimod, Resiquimod) are known to rapidly distribute to the systemic compartment following intratumoral, subcutaneous, or intramuscular injection. Broad systemic distribution of these agonist compounds in wild-type mice induces TLR7-dependent cytokine responses, primarily in spleen and liver cells, which can subsequently be detected in the serum within 3-6 hours. The rapid increase in serum cytokine biomarkers (e.g., IL-6 and IL-12p40) can be used to assess the kinetics of systemic distribution of a locally administered TLR agonist.
The kinetics of distribution of pharmaceutical compositions comprised of Compound Nos. 63-00, 63-17, or 63-10 formulated in 95% sesame oil/5% ethanol (v/v) were assessed following a single subcutaneous injection in wild-type mice. All in vivo procedures were conducted in accordance with approved Institutional Animal Care and Use Committee (IACUC) protocols. The animals were housed in a facility that is accredited by the Association for Accreditation and Laboratory Animal Care (AALAC, Frederick Md.). Wild-type female BALB/c mice (15-20 gm) were obtained from Envigo (Hayward, Calif.) and acclimated for 2-3 days prior to use.
The pharmaceutical compositions were made with the three compounds, at a final concentration of 200 μg/mL, in a manner similar to that described in Example B2-1. At T=0, groups of 3 mice were anesthetized with 1% isoflurane and injected subcutaneously in the right footpad with 5 μg of each of the three compounds, or a vehicle control, in 25 uL of 95% sesame oil/5% ethanol (v/v). Then, at T=3, 6, and 24 hours, three animals from each group were anesthetized with 1% isoflurane to facilitate blood collection by cardiac puncture. Samples were processed to serum, and stored at −20° C. for further analysis.

[3] = target: TLR8 (Homo sapiens (Human), UniProt Q9NR97); test: TLR8 agonist bioactivity: induction of TNFα protein in monocyte cultures (ELISA, 24 h); assay type: cell-based; conditions: for EC50: TNFα induction, human monocytes, 24 hours; for TLR8 (% of Compound No. 63-00 EC50 Value): EC50 expressed as percentage of EC50 of Compound No. 63-00; for fold increase of TLR8 agonist potency compared to Compound No. 63-00 (IMDQ): more potent than IMDQ
Method: Monocytes were magnetically isolated from PBMCs, prepared as described above, following labeling with CD14 microbeads (Miltenyi Biotec, San Diego Calif.), according to the manufacturer's instructions. […] Culture supernatants were collected and tumor necrosis factor alpha (TNFα) protein levels were measured by ELISA (MabTech, Cincinnati Ohio), according to the manufacturer's instructions.

Sequence of TLR8 (Q9NR97 27-1041): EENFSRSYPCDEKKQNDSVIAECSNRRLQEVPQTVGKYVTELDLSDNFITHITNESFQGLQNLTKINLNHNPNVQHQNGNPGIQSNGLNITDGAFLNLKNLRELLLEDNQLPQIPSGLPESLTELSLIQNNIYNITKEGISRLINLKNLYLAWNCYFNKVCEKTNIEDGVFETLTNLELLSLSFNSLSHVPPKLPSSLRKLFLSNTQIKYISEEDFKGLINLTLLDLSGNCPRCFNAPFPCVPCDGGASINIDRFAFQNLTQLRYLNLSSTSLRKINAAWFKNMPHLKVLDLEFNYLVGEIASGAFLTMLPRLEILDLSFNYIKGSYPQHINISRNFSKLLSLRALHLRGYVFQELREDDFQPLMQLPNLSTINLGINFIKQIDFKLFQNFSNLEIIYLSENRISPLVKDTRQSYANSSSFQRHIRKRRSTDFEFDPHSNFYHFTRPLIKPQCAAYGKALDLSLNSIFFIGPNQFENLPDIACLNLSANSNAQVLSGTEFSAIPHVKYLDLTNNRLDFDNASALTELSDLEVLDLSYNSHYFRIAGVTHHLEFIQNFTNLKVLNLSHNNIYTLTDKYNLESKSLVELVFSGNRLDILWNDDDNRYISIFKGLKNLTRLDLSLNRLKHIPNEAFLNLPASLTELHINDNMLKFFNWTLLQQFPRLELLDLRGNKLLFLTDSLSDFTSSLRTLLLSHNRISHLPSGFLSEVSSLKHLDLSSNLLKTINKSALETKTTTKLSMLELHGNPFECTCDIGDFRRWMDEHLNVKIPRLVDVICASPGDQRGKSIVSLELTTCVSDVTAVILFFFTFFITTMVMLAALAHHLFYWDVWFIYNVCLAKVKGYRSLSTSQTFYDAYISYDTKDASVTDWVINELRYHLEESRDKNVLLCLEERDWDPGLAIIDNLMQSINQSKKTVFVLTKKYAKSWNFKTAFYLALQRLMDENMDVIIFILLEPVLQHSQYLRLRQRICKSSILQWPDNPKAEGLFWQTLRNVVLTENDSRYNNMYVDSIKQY
Sequence of TLR7 (Q9NYK1 27-1049): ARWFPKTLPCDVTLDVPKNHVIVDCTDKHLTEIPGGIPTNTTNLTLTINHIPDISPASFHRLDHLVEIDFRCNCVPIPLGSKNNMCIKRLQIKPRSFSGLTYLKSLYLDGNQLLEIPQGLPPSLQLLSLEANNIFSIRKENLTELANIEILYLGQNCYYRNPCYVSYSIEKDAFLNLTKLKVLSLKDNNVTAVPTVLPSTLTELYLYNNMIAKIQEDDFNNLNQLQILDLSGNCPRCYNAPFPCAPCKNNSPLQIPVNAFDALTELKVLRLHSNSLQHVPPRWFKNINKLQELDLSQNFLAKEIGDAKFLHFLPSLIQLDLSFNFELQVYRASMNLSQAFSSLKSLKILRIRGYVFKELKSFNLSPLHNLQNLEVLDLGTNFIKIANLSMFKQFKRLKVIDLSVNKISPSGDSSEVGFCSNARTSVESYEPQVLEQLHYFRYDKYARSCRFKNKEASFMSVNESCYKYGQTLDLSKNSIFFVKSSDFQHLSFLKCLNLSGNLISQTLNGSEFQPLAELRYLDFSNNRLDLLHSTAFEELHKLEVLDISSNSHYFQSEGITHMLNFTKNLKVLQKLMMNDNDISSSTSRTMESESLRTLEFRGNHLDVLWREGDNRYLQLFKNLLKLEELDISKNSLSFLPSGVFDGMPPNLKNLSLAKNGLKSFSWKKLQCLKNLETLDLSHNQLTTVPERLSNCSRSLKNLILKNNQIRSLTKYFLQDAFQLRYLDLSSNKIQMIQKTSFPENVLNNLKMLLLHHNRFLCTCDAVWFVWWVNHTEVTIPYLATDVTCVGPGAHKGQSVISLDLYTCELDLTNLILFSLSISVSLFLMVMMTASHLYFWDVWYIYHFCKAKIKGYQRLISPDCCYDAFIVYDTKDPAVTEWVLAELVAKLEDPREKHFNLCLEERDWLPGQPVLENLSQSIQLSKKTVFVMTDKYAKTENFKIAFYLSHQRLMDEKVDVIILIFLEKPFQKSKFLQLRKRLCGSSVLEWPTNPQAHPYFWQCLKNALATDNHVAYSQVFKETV

EC50 [1] [nM]	EC50 [3] [nM]	Structure (SMILES)	fold loss of TLR7 agonist potency compared to Compound No. 63-00 (IMDQ) [1] [fold]	TLR7 (% of Compound No. 63-00 EC50 Value) [1]	TLR8 (% of Compound No. 63-00 EC50 Value) [3] [%]	further results
2	104	CCCCCNCc1ccc(Cn2c(CCCC)nc3c(N)nc4ccccc4c32)cc1 [Compound No. 63-17, 2-butyl-1-(4-((pentylamino)methyl)benzyl)-1H-imidazo[4,5-c]quinolin-4-amine]	2	–	–	serum IL-6 ([2]; 3 hours): 853 ± 539 pg/mL; serum IL-12p40 ([2]; 3 hours): 84,731±32,530 pg/mL; serum IL-6 ([2]; 6 hours): 414 ± 105 pg/mL; serum IL-12p40 ([2]; 6 hours): 258,645±19,982 pg/mL; serum IL-6 ([2]; 24 hours): 33 ± 4 pg/mL; serum IL-12p40 ([2]; 24 hours): 19,546±2,116 pg/mL
157	3100	CCCCCCCCCCCCCCCCNCc1ccc(Cn2c(CCCC)nc3c(N)nc4ccccc4c32)cc1 [Compound No. 63-32, 2-butyl-1-(4-((hexadecylamino)methyl)benzyl)-1H-imidazo[4,5-c]quinolin-4-amine, reference compound]	–	–	–	–
8	1490	CCCCc1nc2c(N)nc3ccccc3c2n1Cc1ccc(CNC(=O)CC2CC2)cc1 [Compound No. 63-34, N-(4-((4-amino-2-butyl-1H-imidazo[4,5-c]quinolin-1-yl)methyl)benzyl)-2-cyclopropylacetamide]	8	–	–	fold loss of TLR8 agonist potency compared to Compound No. 63-00 (IMDQ) ([3]; less potent than IMDQ): 7 fold
–	–	CCCCc1nc2c(N)nc3ccccc3c2n1Cc1ccc(CNCC2CC2)cc1 [Compound No. 63-38, 2-butyl-1-(4-(((cyclopropylmethyl)amino)methyl)benzyl)-1H-imidazo[4,5-c]quinolin-4-amine]	–	345%	37	–
–	–	CCCCc1nc2c(N)nc3ccccc3c2n1Cc1ccc(CNCC2CC2C)cc1 (stereo not drawn) [Compound No. 63-39, 2-butyl-1-(4-((((2-methylcyclopropyl)methyl)amino)methyl)benzyl)-1H-imidazo[4,5-c]quinoline-4-amine]	–	220%	48	–
–	–	CCCCc1nc2c(N)nc3ccccc3c2n1Cc1ccc(CNCC2CC2(C)C)cc1 (stereo not drawn) [Compound No. 63-40, 2-butyl-1-(4-((((2,2-dimethylcyclopropyl)methyl)amino)methyl)benzyl)-1H-imidazo[4,5-c]quinolin-4-amine]	–	215%	51	–
–	–	CCCCc1nc2c(N)nc3ccccc3c2n1Cc1ccc(CNCC(C)(C)C2CC2)cc1 [Compound No. 63-41, 2-butyl-1-(4-(((2-cyclopropyl-2-methylpropyl)amino)methyl)benzyl)-1H-imidazo[4,5-c]quinoline-4-amine]	–	360%	43	–
–	–	CCCCc1nc2c(N)nc3ccccc3c2n1Cc1ccc(CNCCC2(C)CC2)cc1 [Compound No. 63-42, 2-butyl-1-(4-(((2-(1-methylcyclopropyl)ethyl)amino)methyl)benzyl)-1H-imidazo[4,5-c]quinolin-4-amine]	–	445%	85	fold increase of TLR8 agonist potency compared to Compound No. 63-00 (IMDQ) [3]: slightly improved to slightly inferior
–	–	CCCCc1nc2c(N)nc3ccccc3c2n1Cc1ccc(CNCCCC2CC2)cc1 [Compound No. 63-43, 2-butyl-1-(4-(((3-cyclopropylpropyl)amino)methyl)benzyl)-1H-imidazo[4,5-c]quinolin-4-amine]	–	440%	77	–
–	–	CCCCc1nc2c(N)nc3ccccc3c2n1Cc1ccc(CNCC2CCC2)cc1 [Compound No. 63-44, 2-butyl-1-(4-(((cyclobutylmethyl)amino)methyl)benzyl)-1H-imidazo[4,5-c]quinolin-4-amine]	1.2	120%	17	fold increase of TLR8 agonist potency compared to Compound No. 63-00 (IMDQ) [3]: 5.9 fold
–	–	CCCCc1nc2c(N)nc3ccccc3c2n1Cc1ccc(CNCC2(C)CCC2)cc1 [Compound No. 63-45, 2-butyl-1-(4-((((1-methylcyclobutyl)methyl)amino)methyl)benzyl)-1H-imidazo[4,5-c]quinoline-4-amine]	1.9	190%	13	fold increase of TLR8 agonist potency compared to Compound No. 63-00 (IMDQ) [3]: 7.7 fold
–	–	CCCCc1nc2c(N)nc3ccccc3c2n1Cc1ccc(CNCC2CC(C)C2)cc1 (stereo not drawn) [Compound No. 63-46, 2-butyl-1-(4-((((3-methylcyclobutyl)methyl)amino)methyl)benzyl)-1H-imidazo[4,5-c]quinolin-4-amine]	–	400%	39	–
–	–	CCCCc1nc2c(N)nc3ccccc3c2n1Cc1ccc(CNCC(C)(C)C2CCC2)cc1 [Compound No. 63-47, 2-butyl-1-(4-(((2-cyclobutyl-2-methylpropyl)amino)methyl)benzyl)-1H-imidazo[4,5-c]quinolin-4-amine]	9.0	900%	108	fold increase of TLR8 agonist potency compared to Compound No. 63-00 (IMDQ) [3]: slightly improved to slightly inferior

Structure (SMILES)	EC50 [1] [nM]	EC50 [3] [nM]	fold loss of TLR7 agonist potency compared to Compound No. 63-00 (IMDQ) [1] [fold]	TLR7 (% of Compound No. 63-00 EC50 Value) [1]	TLR8 (% of Compound No. 63-00 EC50 Value) [3] [%]	further results
CCCCc1nc2c(N)nc3ccccc3c2n1Cc1ccc(CNCCC2CCC2)cc1 [Compound No. 63-35, 2-butyl-1-(4-(((2-cyclobutylethyl)amino)methyl)benzyl)-1H-imidazo[4,5-c]quinolin-4-amine]	12	70	–	715%	53	–
CCCCc1nc2c(N)nc3ccccc3c2n1Cc1ccc(CNCCC2CCCC2)cc1 [Compound No. 63-36, 2-butyl-1-(4-(((2-cyclopentylethyl)amino)methyl)benzyl)-1H-imidazo[4,5-c]quinolin-4-amine]	11	117	10.9	1,085%	72	–
